We go through 15 compounds from patent US12303509B2, “Compounds for the treatment of BRAF-associated diseases and disorders” (Pfizer Inc., priority 2020, dated 2025).

Data set [1] has as its target full-length FLAG-tagged B-Raf(V600E) (Homo sapiens (Human), UniProt P15056, V600E). The experiment in a line: BRAF V600E enzyme assay (TR-FRET competitive displacement). In kind it is binding. In short, it runs like this: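 Displacement of 50 nM Tracer 1710 from 5 nM full-length N-terminally FLAG-tagged B-Raf(V600E), detected by TR-FRET with 0.5 nM Eu anti-FLAG antibody, in 25 mM HEPES pH 7.4, 10 mM MgCl2, 2% DMSO; 60 min at ~22 °C. Compounds 11-point, 3-fold from 10 μM; IC50 from 4-parameter fit at 50 POC.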
For orientation: TR-FRET usually uses a lanthanide donor and a delayed reading to cut background.

Another data set relates to A375 cells. The experiment in a line: Cellular phospho-ERK inhibition assay in A375 cells. In kind it is cell-based. As to conditions: Homo sapiens, A-375, A375 cells (head prints A357), 2 hours treatment, read-out: A357 cell IC50. In a few lines:
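A375 (DMEM) or H1755 (RPMI) cells in 10% FBS treated 2 h at 37 °C with 9-point series, 66 pM–10 μM, 0.25% DMSO. Phospho-ERK1/2 (Thr202/Tyr204) measured by In Cell Western, normalised to GAPDH and to DMSO and 10 μM binimetinib controls; IC50 by 4-parameter fit.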

The next data set relates to H1755 cells. The experiment in a line: Cellular phospho-ERK inhibition assay in H1755 cells. Format: cell-based. As to conditions: Homo sapiens, NCI-H1755, 2 hours treatment, read-out: H1755 Cell IC50. How it is done: A375 and H1755 cells were obtained from the American Type Culture Collection (ATCC, Rockville, MD). A375 cells were maintained in DMEM growth medium containing 10% FBS. H1755 cells were maintained in RPMI growth medium containing 10% FBS.
Cells were harvested according to standard protocols, counted and plated onto flat-bottom, 96-well tissue culture plates (Costar #3599) at 2.5×10^4 cells/well for A375 cells and 1.5×10^4 cells/well for H1755 cells in 100 μL/well of growth medium containing 10% FBS. After an overnight incubation at 37° C. with 5% CO2 cells were treated for 2 hours at 37° C., 5% CO2 with compounds prepared as a 9-point, 1:3.33 fold dilution series with final compound concentrations ranging from 66 pM-10 μM and a constant DMSO concentration of 0.25%. Control wells contained either 0.25% DMSO alone (uninhibited control) or 10 μM binimetinib (complete inhibition control). The levels of phosphorylated ERK are determined using an In Cell Western protocol: following compound incubation, growth medium was discarded, and cells were fixed with 0.4% formaldehyde in PBS for 20 minutes at room temperature. Cells were permeabilized with 100% methanol for 10 minutes at room temperature. Plates were washed with PBS containing 0.05% Tween-20 and blocked for 1 hour at room temperature with LI-COR Blocking Buffer (LI-COR Biosciences; Cat #927-40000). Plates were then incubated for 2 hours at room temperature with 50 μL of a 1:400 dilution of anti-phospho-ERK1/2 (Thr202/Tyr204) (Cell Signaling; Cat #9101) and a 1:1000 dilution of anti-GAPDH (Millipore; Cat #MAB374) in LI-COR blocking buffer containing 0.05% Tween-20. Plates were washed with PBS containing […] Tween-20 then incubated at room temperature for 1 hour with 50 μL of a 1:1000 dilution of anti-rabbit AlexaFluor 680 (Life Technologies; Cat #A21109) and a 1:1000 dilution of anti-mouse IRDye 800CW (LI-COR; Cat #926-32210) in LI-COR blocking buffer containing 0.05% Tween-20. Plates were analyzed by reading on an Odyssey CLx infrared scanner. For each well, the phospho-ERK signal was normalized to the GAPDH signal and converted to POC using the following equation:
[formula] • Where: • Xmax Average Uninhibited Controls • Xmin Average Complete Inhibition Controls IC50 values were then calculated using a 4-parameter fit in XLfit software and are provided in Table A1.

Data set [2] can be described thus: MDR1 LLC-PK1 and BCRP MDCKII permeability assay: permeability coefficient (Papp). Format: in vitro ADME. The source says:
(§1) Final organic concentration in the assay was 1%.

Another data set has as its target P-gp (MDR1) (Homo sapiens (Human), UniProt P08183). The experiment in a line: MDR1 LLC-PK1 permeability assay: efflux ratio. In kind it is in vitro ADME. The conditions noted are these: pig.
Source text: as §1

In another data set the target is BCRP (Homo sapiens (Human), UniProt Q9UNQ0). The experiment in a line: BCRP MDCKII permeability assay: efflux ratio. In kind it is in vitro ADME. As to conditions: dog.
Setting [3] is: averaged IC50, TR-FRET tracer displacement, 60 min.

Structures can show the parent of a compound that is named as a salt. Where two headings read alike, the source gives them in different places.

Sequence of P-gp (MDR1) (P08183 whole entry, species assumed): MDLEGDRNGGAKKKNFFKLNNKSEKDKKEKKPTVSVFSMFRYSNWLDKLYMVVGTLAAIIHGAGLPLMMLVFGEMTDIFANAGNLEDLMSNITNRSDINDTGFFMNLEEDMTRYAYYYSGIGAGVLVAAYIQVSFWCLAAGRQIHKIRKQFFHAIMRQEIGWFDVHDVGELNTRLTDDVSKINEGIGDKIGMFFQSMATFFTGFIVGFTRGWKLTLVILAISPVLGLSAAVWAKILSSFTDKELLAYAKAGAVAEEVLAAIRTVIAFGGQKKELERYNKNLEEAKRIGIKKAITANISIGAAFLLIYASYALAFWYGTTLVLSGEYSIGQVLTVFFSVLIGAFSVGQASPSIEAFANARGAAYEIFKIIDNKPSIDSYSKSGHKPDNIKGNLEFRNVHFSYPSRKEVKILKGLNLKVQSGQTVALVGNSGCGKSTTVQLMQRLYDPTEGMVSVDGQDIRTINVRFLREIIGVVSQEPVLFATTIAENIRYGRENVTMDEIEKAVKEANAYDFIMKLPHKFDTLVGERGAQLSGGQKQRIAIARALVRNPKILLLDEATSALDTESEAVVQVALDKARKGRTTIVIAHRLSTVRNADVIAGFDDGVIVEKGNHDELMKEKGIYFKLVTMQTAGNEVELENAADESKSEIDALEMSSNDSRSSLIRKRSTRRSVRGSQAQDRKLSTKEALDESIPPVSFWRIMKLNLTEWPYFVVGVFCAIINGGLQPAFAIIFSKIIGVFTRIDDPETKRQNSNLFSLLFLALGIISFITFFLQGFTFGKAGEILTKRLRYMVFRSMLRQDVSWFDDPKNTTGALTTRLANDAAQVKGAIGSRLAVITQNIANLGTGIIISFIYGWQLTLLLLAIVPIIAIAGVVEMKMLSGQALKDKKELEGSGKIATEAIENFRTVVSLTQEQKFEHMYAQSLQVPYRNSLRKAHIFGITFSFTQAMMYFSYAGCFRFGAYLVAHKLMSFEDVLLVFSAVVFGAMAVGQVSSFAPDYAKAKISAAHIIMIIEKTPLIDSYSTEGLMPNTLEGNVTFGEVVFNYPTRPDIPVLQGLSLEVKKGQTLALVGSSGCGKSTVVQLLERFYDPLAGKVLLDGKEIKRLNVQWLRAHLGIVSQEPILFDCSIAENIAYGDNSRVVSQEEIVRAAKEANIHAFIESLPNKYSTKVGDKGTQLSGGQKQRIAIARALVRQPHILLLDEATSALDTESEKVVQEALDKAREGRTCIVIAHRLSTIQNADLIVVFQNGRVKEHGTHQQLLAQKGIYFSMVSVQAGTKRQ
Sequence of full-length FLAG-tagged B-Raf(V600E) (P15056 whole entry V600E): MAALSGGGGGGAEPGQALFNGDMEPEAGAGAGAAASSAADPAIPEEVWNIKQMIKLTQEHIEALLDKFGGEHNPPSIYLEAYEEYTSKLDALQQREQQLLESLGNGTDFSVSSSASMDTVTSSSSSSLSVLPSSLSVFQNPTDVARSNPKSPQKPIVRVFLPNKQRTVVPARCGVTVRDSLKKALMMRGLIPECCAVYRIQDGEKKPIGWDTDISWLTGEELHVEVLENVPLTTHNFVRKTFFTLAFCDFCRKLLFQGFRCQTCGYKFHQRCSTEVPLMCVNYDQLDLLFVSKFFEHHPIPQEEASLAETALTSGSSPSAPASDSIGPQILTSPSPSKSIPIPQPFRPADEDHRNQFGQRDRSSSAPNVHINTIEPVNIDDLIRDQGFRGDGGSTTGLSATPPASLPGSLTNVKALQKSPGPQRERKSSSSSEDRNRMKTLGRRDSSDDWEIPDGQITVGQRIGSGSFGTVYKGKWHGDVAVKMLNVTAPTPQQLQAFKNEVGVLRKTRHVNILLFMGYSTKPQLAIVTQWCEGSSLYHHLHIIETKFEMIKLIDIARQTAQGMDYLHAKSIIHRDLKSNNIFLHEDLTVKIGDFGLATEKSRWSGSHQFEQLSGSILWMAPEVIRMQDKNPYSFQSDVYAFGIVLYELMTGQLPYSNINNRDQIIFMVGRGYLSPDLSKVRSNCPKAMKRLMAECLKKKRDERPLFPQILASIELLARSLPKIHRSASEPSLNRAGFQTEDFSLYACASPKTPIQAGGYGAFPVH
Sequence of BCRP (Q9UNQ0 whole entry): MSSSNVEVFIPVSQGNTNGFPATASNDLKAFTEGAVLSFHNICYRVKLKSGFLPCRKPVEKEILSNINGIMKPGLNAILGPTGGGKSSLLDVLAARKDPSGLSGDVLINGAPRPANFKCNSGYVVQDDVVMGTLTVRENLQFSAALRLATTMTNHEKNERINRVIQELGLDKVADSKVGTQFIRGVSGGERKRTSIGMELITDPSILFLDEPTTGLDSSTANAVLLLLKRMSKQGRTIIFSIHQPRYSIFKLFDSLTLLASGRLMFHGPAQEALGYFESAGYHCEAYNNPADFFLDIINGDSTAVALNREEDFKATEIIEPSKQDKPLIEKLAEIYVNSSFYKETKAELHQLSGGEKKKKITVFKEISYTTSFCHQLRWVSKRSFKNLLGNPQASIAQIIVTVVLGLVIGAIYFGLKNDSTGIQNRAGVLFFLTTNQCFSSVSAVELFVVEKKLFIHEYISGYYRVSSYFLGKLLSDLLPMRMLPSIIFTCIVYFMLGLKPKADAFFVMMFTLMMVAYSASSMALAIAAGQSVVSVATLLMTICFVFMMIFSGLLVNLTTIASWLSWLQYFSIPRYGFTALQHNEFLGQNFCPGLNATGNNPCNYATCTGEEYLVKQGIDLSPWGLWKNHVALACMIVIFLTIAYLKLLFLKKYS

Take `CO[C@H]1CN(S(=O)(=O)Nc2cc(F)c(F)c(Nc3ccc4ncn(C)c(=O)c4c3C)c2Cl)C[C@H]1F` (relative stereo) [Example 100, cis-N-(2-chloro-3-((3,5-dimethyl-4-oxo-3,4-dihydroquinazolin-6-yl)amino)-4,5-difluorophenyl)-3-fluoro-4-methoxypyrrolidine-1-sulfonamide]: the IC50 (commonly the midpoint of a concentration-inhibition curve) in data set [1] (setting [3]) worked out at 6 nM; in the data set on A375 cells, 47 nM; in the data set with H1755 cells, 293 nM.

With `C=Cc1c(Nc2c(F)ccc(NS(=O)(=O)N3CCCC3)c2Cl)ccc2ncn(C)c(=O)c12` [Example 51, N-(2-chloro-4-fluoro-3-((3-methyl-4-oxo-5-vinyl-3,4-dihydroquinazolin-6-yl)amino)phenyl)pyrrolidine-1-sulfonamide trifluoroacetate], the IC50 in data set [1] (setting [3]) came to 77 nM; in the data set on A375 cells, 58 nM; in the data set on H1755 cells, 278 nM.

Consider `CCc1c(Nc2c(F)ccc(NS(=O)(=O)N3CCCC3)c2Cl)ccc2ncn(C)c(=O)c12` [Example 52, N-(2-chloro-3-((5-ethyl-3-methyl-4-oxo-3,4-dihydroquinazolin-6-yl)amino)-4-fluorophenyl)pyrrolidine-1-sulfonamide trifluoroacetate], for which the 50% inhibitory concentration (IC50) in data set [1] (setting [3]) was 141 nM; in the data set with A375 cells, 124 nM; in the data set on H1755 cells it was 857 nM.

Turning to `Cn1cnc2ccc(Oc3c(F)ccc(NS(=O)(=O)N4C[C@@H](F)[C@@H](F)C4)c3Cl)c(F)c2c1=O` [Example 64, cis-N-(2-chloro-4-fluoro-3-((5-fluoro-3-methyl-4-oxo-3,4-dihydroquinazolin-6-yl)oxy)phenyl)-3,4-difluoropyrrolidine-1-sulfonamide], the concentration for half-maximal inhibition (IC50) in data set [1] turned out to be 2 nM; with A375 cells, 7 nM; in the data set with H1755 cells, 64 nM. Moreover, the apparent permeability (Papp) (as a rule, the rate of passage across a membrane or cell layer, normalised by area and donor concentration) at 2 h, 1 µM in data set [2] is 34 ×10⁻⁶ cm/s. The efflux ratio (commonly a quotient of directional permeabilities that is used to spot active efflux) at 2 h, 1 µM at P-gp (MDR1) came to 4.5.

With `Cc1c(Nc2c(F)c(F)cc(NS(=O)(=O)N3CC4CC3C4)c2Cl)ccc2ncn(C)c(=O)c12` [Example 101, N-(2-chloro-3-((3,5-dimethyl-4-oxo-3,4-dihydroquinazolin-6-yl)amino)-4,5-difluorophenyl)-2-azabicyclo[2.1.1]hexane-2-sulfonamide], the values for the IC50 (in data set [1] (setting [3]); in the data set on A375 cells; with H1755 cells) were 3 nM, 37 nM and 434 nM, respectively.

For the compound `Cc1c(Nc2c(F)c(F)cc(NS(=O)(=O)N3CC4CC4C3)c2Cl)ccc2ncn(C)c(=O)c12` (stereo not drawn) [Example 102, N-(2-chloro-3-((3,5-dimethyl-4-oxo-3,4-dihydroquinazolin-6-yl)amino)-4,5-difluorophenyl)-3-azabicyclo[3.1.0]hexane-3-sulfonamide], the values for the 50% inhibitory concentration (IC50) (in data set [1] (setting [3]); in the data set with A375 cells; in the data set on H1755 cells) were 1 nM, 73 nM and 702 nM, respectively.

For `CO[C@@H]1CCN(S(=O)(=O)Nc2cc(Cl)cc(Nc3ccc4ncn(C)c(=O)c4c3C)c2F)C1` [Example 105, (R)-N-(5-chloro-3-((3,5-dimethyl-4-oxo-3,4-dihydroquinazolin-6-yl)amino)-2-fluorophenyl)-3-methoxypyrrolidine-1-sulfonamide], the 50% inhibitory concentration (IC50) was 15 nM in data set [1] (setting [3]), 147 nM in the data set on A375 cells and 268 nM in the data set on H1755 cells.

As for `COCC1CN(S(=O)(=O)Nc2ccc(F)c(Oc3ccc4ncn(C)c(=O)c4c3Cl)c2Cl)C1` [Example 118, N-(2-chloro-3-((5-chloro-3-methyl-4-oxo-3,4-dihydroquinazolin-6-yl)oxy)-4-fluorophenyl)-3-(methoxymethyl)azetidine-1-sulfonamide], the values for the concentration for half-maximal inhibition (IC50) (in data set [1] (setting [3]); with A375 cells; in the data set on H1755 cells) were 4 nM, 6 nM and 41 nM, respectively. The Papp at 2 h, 1 µM in data set [2] is 34 ×10⁻⁶ cm/s. The efflux ratio at 2 h, 1 µM on P-gp (MDR1) is 3.5.

`COC1CN(S(=O)(=O)Nc2ccc(F)c(Oc3ccc4ncn(C)c(=O)c4c3Cl)c2Cl)C1` [Example 119, N-(2-chloro-3-((5-chloro-3-methyl-4-oxo-3,4-dihydroquinazolin-6-yl)oxy)-4-fluorophenyl)-3-methoxyazetidine-1-sulfonamide]: the IC50 in data set [1] (setting [3]) amounted to 6 nM; in the data set with A375 cells, 8 nM; with H1755 cells, 51 nM. The same compound showed an apparent permeability coefficient (Papp) at 2 h, 1 µM in data set [2] of 32 ×10⁻⁶ cm/s. For the same compound, the efflux ratio at 2 h, 1 µM at P-gp (MDR1) was 3.8.

With `Cn1cnc2ccc(Oc3c(F)ccc(NS(=O)(=O)N4CC(F)C4)c3Cl)c(Cl)c2c1=O` [Example 120, N-(2-chloro-3-((5-chloro-3-methyl-4-oxo-3,4-dihydroquinazolin-6-yl)oxy)-4-fluorophenyl)-3-fluoroazetidine-1-sulfonamide], the 50% inhibitory concentration (IC50) in data set [1] (setting [3]) worked out at 2 nM; in the data set on A375 cells it was 4 nM; with H1755 cells, 69 nM. For the same compound, in data set [2], the apparent permeability coefficient (Papp) at 2 h, 1 µM was 30 ×10⁻⁶ cm/s. Further, the efflux ratio at 2 h, 1 µM at P-gp (MDR1) amounted to 3.8.

Turning to `COCC1CN(S(=O)(=O)Nc2ccc(F)c(Nc3ccc4ncn(C)c(=O)c4c3Cl)c2Cl)C1` [Example 132, N-(2-chloro-3-((5-chloro-3-methyl-4-oxo-3,4-dihydroquinazolin-6-yl)amino)-4-fluorophenyl)-3-(methoxymethyl)azetidine-1-sulfonamide trifluoroacetate], the half-inhibitory concentration (IC50) is 13 nM in data set [1] (setting [3]), 3 nM in the data set on A375 cells and 33 nM in the data set with H1755 cells. Further, the Papp at 2 h, 1 µM in data set [2] turned out to be 36 ×10⁻⁶ cm/s. In addition, the efflux ratio at 2 h, 1 µM at P-gp (MDR1) was 2.7.

For the compound `COCC1CN(S(=O)(=O)Nc2ccc(F)c(Nc3ccc4ncn(C)c(=O)c4c3F)c2Cl)C1` [Example 133, N-(2-chloro-4-fluoro-3-((5-fluoro-3-methyl-4-oxo-3,4-dihydroquinazolin-6-yl)amino)phenyl)-3-(methoxymethyl)azetidine-1-sulfonamide trifluoroacetate], the values for the half-inhibitory concentration (IC50) (in data set [1] (setting [3]); in the data set on A375 cells; with H1755 cells) were 5 nM, 1 nM and 11 nM, respectively. The Papp at 2 h, 1 µM in data set [2] came to 33 ×10⁻⁶ cm/s. The efflux ratio at 2 h, 1 µM on P-gp (MDR1) is 5.7.

In the case of `Cn1cnc2ccc(Nc3c(F)ccc(NS(=O)(=O)N4CC(COC(F)F)C4)c3Cl)c(F)c2c1=O` [Example 139, N-(2-chloro-4-fluoro-3-((5-fluoro-3-methyl-4-oxo-3,4-dihydroquinazolin-6-yl)amino)phenyl)-3-((difluoromethoxy)methyl)azetidine-1-sulfonamide trifluoroacetate], the IC50 in data set [1] (setting [3]) is 4 nM; with A375 cells, 3 nM; in the data set on H1755 cells, 10 nM. Further, the Papp at 2 h, 1 µM in data set [2] was 32 ×10⁻⁶ cm/s. For the same compound, the efflux ratio at 2 h, 1 µM on P-gp (MDR1) came to 5.3.

Take `Cc1c(Nc2c(F)ccc(NS(=O)(=O)N3CC(OC(F)F)C3)c2Cl)ccc2ncn(C)c(=O)c12` [Example 161, N-(2-chloro-3-((3,5-dimethyl-4-oxo-3,4-dihydroquinazolin-6-yl)amino)-4-fluorophenyl)-3-(difluoromethoxy)azetidine-1-sulfonamide]: the IC50 in data set [1] (setting [3]) worked out at 24 nM; in the data set with A375 cells it was 245 nM. In addition, the Papp at 2 h, 1 µM in data set [2] is 27 ×10⁻⁶ cm/s. The efflux ratio at 2 h, 1 µM at P-gp (MDR1) came to 1.9; at BCRP it was 2.6.

As for `Cc1c(Nc2c(F)ccc(NS(=O)(=O)N3CC4(CC4)C3)c2Cl)ccc2ncn(C)c(=O)c12` [Example 163, N-(2-chloro-3-((3,5-dimethyl-4-oxo-3,4-dihydroquinazolin-6-yl)amino)-4-fluorophenyl)-5-azaspiro[2.3]hexane-5-sulfonamide trifluoroacetate], the half-inhibitory concentration (IC50) was determined as 8 nM in data set [1] (setting [3]) and 179 nM in the data set on A375 cells. The compound also came in with a Papp at 2 h, 1 µM in data set [2] of 23 ×10⁻⁶ cm/s. Further, the efflux ratio at 2 h, 1 µM on P-gp (MDR1) is 1.9; on BCRP, 1.4.
